Earlier results as cited in patent EP3342399B1, “PHARMACEUTICAL COMPOSITIONS COMPRISING POSACONAZOLE AND MANUFACTURING METHOD” (Abdi Ibrahim Ilac Sanayi ve Ticaret A.S., priority 2016, dated 2018).
Like-named read-outs stand apart in the source and are kept apart here.

permeability (BCS Class II): high
solubility (BCS Class II): low
solubility (at low pH): high
Compound: CC[C@@H]([C@H](C)O)n1ncn(-c2ccc(N3CCN(c4ccc(OC[C@@H]5CO[C@@](Cn6cncn6)(c6ccc(F)cc6F)C5)cc4)CC3)cc2)c1=O [Posaconazole, 1-[(1S,2S)-1-Ethyl-2-hydroxypropyl]-4-{4-[4-(4-{2-[(2S,4R)-(1,2,4-triazol-1-ylmetyl)-2-(2,4-difluorophenyl)-oxolan-4-ylmetyl]phenyl}piperazin-1-yl)phenyl]}-2,3-dihydro-1,2,4-triazol-3-one]
